Experimental data as given in patent US20100298141A1, “SUBSTITUTED PYRIDINE N-OXIDE HERBICIDES” (E. I. DU PONT DE NEMOURS AND COMPANY, priority 2007, published 2010).

How the values were obtained:
eastern black nightshade = experiment: Test C pre-/postemergence test; format: in vivo, Solanum ptycanthum
Summary of the method: (§1)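 Test chemicals were formulated with surfactant in a non-phytotoxic solvent and sprayed both on freshly planted seeds (preemergence) and on 1- to 4-leaf plants of 2–18 cm (postemergence). Flooded-paddy pots received compound directly into 3 cm of standing water, maintained for the test.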

kochia = experiment: Test C pre-/postemergence test; format: in vivo, Kochia scoparia
Summary of the method: as §1

[1] = tested on: common (oilseed) sunflower; experiment: Test C pre-/postemergence test; format: in vivo, Helianthus annuus; conditions: for Sunflower plant response rating: preemergence, scale 0 (no effect) to 100 (complete control)
Summary of the method: as §1

downy brome = experiment: Test C pre-/postemergence test; format: in vivo, Bromus tectorum
Summary of the method: as §1

cocklebur = experiment: Test C pre-/postemergence test; format: in vivo, Xanthium strumarium
Summary of the method: as §1

Surinam grass = experiment: Test C pre-/postemergence test; format: in vivo, Brachiaria decumbens; conditions: for Surinam Grass plant response rating: preemergence, scale 0 (no effect) to 100 (complete control)
Summary of the method: as §1

common ragweed = experiment: Test C pre-/postemergence test; format: in vivo, Ambrosia elation
Summary of the method: as §1

catchweed bedstraw = experiment: Test C pre-/postemergence test; format: in vivo, Galium aparine
Summary of the method: as §1

wild oat = experiment: Test C pre-/postemergence test; format: in vivo, Avena fatua
Summary of the method: as §1

giant foxtail [2] = experiment: Test C pre-/postemergence test; format: in vivo, Setaria faberii
Summary of the method: as §1

giant foxtail [3] = experiment: Test A pre-/postemergence greenhouse test; format: in vivo, Setaria faberi; conditions: for Foxtail, Giant plant response rating: 0 to 100 scale
Summary of the method: (§2)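 Untreated controls served as the reference for visual injury ratings taken about ten days after spraying. The non-phytotoxic solvent/surfactant formulation was applied preemergence to seeded loam and sand and postemergence to plants two to ten cm high.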

lambsquarters = experiment: Test C pre-/postemergence test; format: in vivo, Chenopodium album
Summary of the method: as §1

wheat [4] = experiment: Test A pre-/postemergence greenhouse test; format: in vivo, Triticum aestivum; conditions: for Wheat plant response rating: 0 to 100 scale
Summary of the method: as §2

wheat [5] = experiment: Test C pre-/postemergence test; format: in vivo, Triticum aestivum; conditions: for Wheat plant response rating: preemergence, scale 0 (no effect) to 100 (complete control)
Summary of the method: as §1

redroot pigweed = experiment: Test A pre-/postemergence greenhouse test; format: in vivo, Amaranthus retroflexus; conditions: for Pigweed plant response rating: 0 to 100 scale
Summary of the method: as §2

morningglory = experiment: Test A pre-/postemergence greenhouse test; format: in vivo, Ipomoea spp.; conditions: for Morningglory plant response rating: 0 to 100 scale
Summary of the method: as §2

woolly cupgrass = experiment: Test C pre-/postemergence test; format: in vivo, Eriochloa villosa
Summary of the method: as §1

velvetleaf = experiment: Test C pre-/postemergence test; format: in vivo, Abutilon theophrasti; conditions: for Velvetleaf plant response rating: preemergence, scale 0 (no effect) to 100 (complete control)
Summary of the method: as §1

blackgrass = experiment: Test C pre-/postemergence test; format: in vivo, Alopecurus myosuroides
Summary of the method: as §1

[6] = 31 g ai/ha, Preemergence, scale 0 to 100
[7] = 62 g ai/ha, preemergence, scale 0 (no effect) to 100 (complete control)
[8] = preemergence, 125 g ai/ha, scale 0 (no effect) to 100 (complete control)
[9] = Postemergence, 125 g ai/ha, 0 is no effect, 100 is complete control
[10] = Postemergence, 500 g ai/ha, 0 is no effect, 100 is complete control
[11] = Preemergence, 125 g ai/ha, 0 no effect, 100 complete control
[12] = Preemergence, 500 g ai/ha, 0 to 100 scale where 0 is no effect and 100 is complete control

Cc1cc[n+]([O-])c(S(=O)(=O)C(C)c2c(C(F)(F)F)nn(C)c2Cl)c1 (racemic) [Compound 14]
20: Wheat plant response rating (wheat [5]; 62 g ai/ha)
30: Bromegrass, Downy plant response rating (downy brome; [6]) | Lambsquarters plant response rating (lambsquarters; [6]) | Morningglory plant response rating (morningglory; [9])
80: Nightshade plant response rating (eastern black nightshade; [6]) | Foxtail, Giant plant response rating (giant foxtail [3]; [10]) | Plant response rating (0 to 100), Wheat (wheat [5]; Preemergence, 250 g ai/ha) | Blackgrass plant response rating (blackgrass; [7]) | Plant response rating (0 to 100), Blackgrass (blackgrass; Preemergence, 250 g ai/ha)
35: Bromegrass, Downy plant response rating (downy brome; [7])
40: Wheat plant response rating (wheat [4]; [9]) | Wheat plant response rating (wheat [4]; [11]) | Blackgrass plant response rating (blackgrass; [6])
75: Plant response rating (0 to 100), Oat, Wild (wild oat; Preemergence, 250 g ai/ha)
70: Plant response rating (0 to 100), Bromegrass, Downy (downy brome; Preemergence, 250 g ai/ha) | Bromegrass, Downy plant response rating (downy brome; [8]) | Foxtail, Giant plant response rating (giant foxtail [3]; [9])
0: Kochia plant response rating (kochia; [6]) | Kochia plant response rating (kochia; [7]) | Cocklebur plant response rating (cocklebur; [6]) | Cocklebur plant response rating (cocklebur; [7]) | Ragweed plant response rating (common ragweed; [6]) | Galium plant response rating (catchweed bedstraw; [6]) | Oat, Wild plant response rating (wild oat; [6]) | Oat, Wild plant response rating (wild oat; [7]) | Pigweed plant response rating (redroot pigweed; [9])
50: Wheat plant response rating (wheat [4]; [10]) | Wheat plant response rating (wheat [5]; 125 g ai/ha) | Morningglory plant response rating (morningglory; [10])
100: Nightshade plant response rating (eastern black nightshade; [7]) | Plant response rating (0 to 100), Nightshade (eastern black nightshade; Preemergence, 250 g ai/ha) | Nightshade plant response rating (eastern black nightshade; [8]) | Plant response rating (0 to 100), Kochia (kochia; Preemergence, 250 g ai/ha) | Kochia plant response rating (kochia; [8]) | Plant response rating (0 to 100), Sunflower ([1]; Preemergence, 250 g ai/ha) | Plant response rating (0 to 100), Surinam Grass (Surinam grass; Preemergence, 250 g ai/ha) | Plant response rating (0 to 100), Ragweed (common ragweed; Preemergence, 250 g ai/ha) | Galium plant response rating (catchweed bedstraw; [7]) | Plant response rating (0 to 100), Galium (catchweed bedstraw; Preemergence, 250 g ai/ha) | Galium plant response rating (catchweed bedstraw; [8]) | Plant response rating (0 to 100), Foxtail, Giant (giant foxtail [2]; Preemergence, 250 g ai/ha) | Foxtail, Giant plant response rating (giant foxtail [2]; [8]) | Plant response rating, Foxtail, Giant (giant foxtail [3]; [12]) | Lambsquarters plant response rating (lambsquarters; [7]) | Plant response rating (0 to 100), Lambsquarters (lambsquarters; Preemergence, 250 g ai/ha) | Lambsquarters plant response rating (lambsquarters; [8]) | Pigweed plant response rating (redroot pigweed; [11]) | Plant response rating, Pigweed (redroot pigweed; [12]) | Plant response rating, Morningglory (morningglory; [12]) | Plant response rating (0 to 100), Cupgrass, Woolly (woolly cupgrass; Preemergence, 250 g ai/ha) | Plant response rating (0 to 100), Velvetleaf (velvetleaf; Preemergence, 250 g ai/ha) | Velvetleaf plant response rating (velvetleaf; 125 g ai/ha)
60: Plant response rating, Wheat (wheat [4]; [12])
10: Plant response rating (0 to 100), Cocklebur (cocklebur; Preemergence, 250 g ai/ha) | Cocklebur plant response rating (cocklebur; [8]) | Oat, Wild plant response rating (wild oat; [8]) | Pigweed plant response rating (redroot pigweed; [10]) | Morningglory plant response rating (morningglory; [11]) | Velvetleaf plant response rating (velvetleaf; 62 g ai/ha)
85: Sunflower plant response rating ([1]; 62 g ai/ha) | Surinam Grass plant response rating (Surinam grass; 62 g ai/ha) | Ragweed plant response rating (common ragweed; [7]) | Ragweed plant response rating (common ragweed; [8]) | Foxtail, Giant plant response rating (giant foxtail [2]; [6]) | Foxtail, Giant plant response rating (giant foxtail [2]; [7]) | Cupgrass, Woolly plant response rating (woolly cupgrass; [6]) | Cupgrass, Woolly plant response rating (woolly cupgrass; [7])
95: Surinam Grass plant response rating (Surinam grass; 125 g ai/ha)
98: Sunflower plant response rating ([1]; 125 g ai/ha)
90: Foxtail, Giant plant response rating (giant foxtail [3]; [11]) | Cupgrass, Woolly plant response rating (woolly cupgrass; [8])
